Measurements reported in patent US20090029855A1, “Quinoline Derivatives and Their Use as Pesticides” (priority 2006, published 2009).

System: Rice Green Leaf Hoppers (Nephoteftix Virescens)
Experiment: Activity against rice green leaf hoppers, foliar spray on rice plants
Assay type: in vivo
Settings: 300 ppm; after 72 hours
Method: Leaf hopper and plant hoppers adults used for bioassay were obtained from a colony maintained continuously under laboratory conditions. For testing purposes, the test compound was diluted in 300 ppm (wt compound:vol diluent) in a 1:1 mixture of acetone:water, plus 0.1% EL 620 surfactant.
Hopper activity was evaluated using the foliar spray technique. Pofted rice plants (2-3 week old, Variety TN-1) were cleaned and dried prior to application. All plants were treated inside the fume hood using DeVilbiss atomizer at 25 psi with a spray volume of 5 ml/plant. To ensure uniform spray distribution, plants were placed in a rotating flat form inside the fume hood. Treated plants were then placed inside the holding room and allowed to dry for 2 hours. Each plant was caged using Mylar cages (4 inches diameter×19 inches in height) and inoculated with 10 adults hoppers. All test plants were held under continuous light and a temperature of about 28° C. for duration of the assay. Percent mortality was observed after 72 hours.

SMILES: Cc1ccc(-c2ccc(S(=O)(=O)NCc3ccnc4ccccc34)cc2)c(Cl)c1 [I-32]
- mortality: ≥ 75%
